Data: patent US9365833B2, “Leucine zipper variant and use thereof” (Samsung Electronics Co., Ltd., priority 2013, dated 2016)

Tested on: skin cancer cell line A-431
Assay: cancer cell growth inhibition (CellTiter-Glo cell viability)
Assay type: cell-based
Settings: mutant p53 expression, up to 15 μM, 5 days; FIG. 11
Experimental: The leucine zipper variant p53LZ2 was evaluated for anticancer activity against the osteosarcoma cell line SJSA-1 (ATCC), the breast cancer cell line MCF7 (ATCC), and the skin cancer cell line A-431 (ATCC), the first two expressing wild-type p53 and the other expressing mutant p53.
Each of the cell lines was seeded at a density of 1×10^3 cells/well in 10% FBS-supplemented RPMI (Gibco) or DMEM (Gibco) into 96-well plates. The next day, the leucine zipper variant (TAT-p53LZ2; TAT (RKKRRQRRR; SEQ ID NO: 5) linked to the N-terminus of p53LZ2, constructed in Example 1) or Nutlin-3 (Sigma) was added at a concentration of 0, 0.59, 0.88, 1.32, 1.98, 2.96, 4.44, 6.67, 10, or 15 μM (increasing by 1.5 fold) in an amount of 100 μL to each well before the cells were cultured for 5 days at 37° C. in an 5% CO2 incubator. To each well was added 80 μL of CellTiter-Glo reagent (Promega), followed by measuring luminescence on EnVision Multilabel Reader (PerkinElmer) to examine cell viability.

COc1ccc(C2=N[C@@H](c3ccc(Cl)cc3)[C@@H](c3ccc(Cl)cc3)N2C(=O)N2CCNC(=O)C2)c(OC(C)C)c1 [Nutlin-3]
cytotoxicity in A431 cell line: failed to exert cytotoxicity
